ChEMBL document CHEMBL1201862, “PubChem BioAssay data set” (2004)
One block for each compound: values may come before it. Active and inactive are the calls of the source.

Columns and labels:
Format in all cases: functional
CHO-K1 = assay: (§1) Counterscreen for antagonists of the orexin 1 receptor (OX1R; HCRTR1): Homogeneous time resolved fluorescence (HTRF)-based cell-based dose response assay to identify antagonists of the parental CHO-K1 cell line. [Related pubchem assays (depositor defined):AID434989, AID435008, AID463079, AID485270, AID492963, AID492964, AID492965, AID493232, AID504699, AID504701]; details: Cricetulus griseus
[1] = as §1, with “Fluorescence-based” for “Homogeneous time resolved fluorescence (HTRF)-based”, “cell-based high throughput” for “cell-based”, “CHO” for “CHO-K1”
[2] = biological target: T1, Orexin/Hypocretin receptor type 1 (Homo sapiens, UniProt O43613); assay: Homogeneous Time Resolved Fluorescence (HTRF)-based cell-based high throughput dose response assay for antagonists of the orexin 1 receptor (OX1R; HCRTR1). [Related pubchem assays (depositor defined):AID434989, AID435008, AID463079, AID485270, AID492963, AID492964, AID492965, AID493232, AID504717, AID504718]
T1 sequence (O43613 whole entry): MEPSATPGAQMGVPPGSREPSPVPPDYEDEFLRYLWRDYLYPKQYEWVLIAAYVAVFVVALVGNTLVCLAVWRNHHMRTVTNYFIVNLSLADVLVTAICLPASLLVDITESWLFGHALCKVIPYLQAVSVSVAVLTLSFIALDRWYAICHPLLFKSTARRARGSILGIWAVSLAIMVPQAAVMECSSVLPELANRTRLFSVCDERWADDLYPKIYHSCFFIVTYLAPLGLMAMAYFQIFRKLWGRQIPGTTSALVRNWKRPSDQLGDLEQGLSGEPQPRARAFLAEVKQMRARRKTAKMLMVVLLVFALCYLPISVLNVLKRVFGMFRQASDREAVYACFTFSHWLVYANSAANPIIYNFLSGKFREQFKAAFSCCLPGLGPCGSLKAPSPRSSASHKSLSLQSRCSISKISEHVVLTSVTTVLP

[3] = biological target: T1, Orexin/Hypocretin receptor type 1; assay: Fluorescence-based cell-based high throughput dose response assay for antagonists of the orexin 1 receptor (OX1R; HCRTR1). [Related pubchem assays (depositor defined):AID434989, AID435008, AID463079, AID485270, AID492963, AID492964, AID492965, AID493232, AID504717, AID504718]
Orexin receptor type 2 [4] = biological target: T2, Orexin receptor type 2 (Homo sapiens, UniProt O43614); assay: Counterscreen assay for antagonists of the orexin 1 receptor (OX1R; HCRTR1): Fluorescence-based cell-based dose response assay for antagonists of the orexin 2 receptor (OX2R; HCRTR2), run by assay provider.
T2 sequence (O43614 whole entry): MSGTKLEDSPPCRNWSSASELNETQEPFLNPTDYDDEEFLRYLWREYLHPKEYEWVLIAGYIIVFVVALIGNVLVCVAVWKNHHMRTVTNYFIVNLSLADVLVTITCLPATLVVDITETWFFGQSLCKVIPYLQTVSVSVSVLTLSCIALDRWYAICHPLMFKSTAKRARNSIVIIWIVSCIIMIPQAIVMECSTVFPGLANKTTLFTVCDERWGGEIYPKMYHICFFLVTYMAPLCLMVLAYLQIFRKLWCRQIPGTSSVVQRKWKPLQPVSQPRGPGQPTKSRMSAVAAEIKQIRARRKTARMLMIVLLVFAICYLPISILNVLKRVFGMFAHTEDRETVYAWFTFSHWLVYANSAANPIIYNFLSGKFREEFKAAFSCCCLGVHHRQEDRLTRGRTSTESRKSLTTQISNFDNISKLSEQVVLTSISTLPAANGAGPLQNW

Orexin receptor type 2 [5] = biological target: T2, Orexin receptor type 2; assay: Counterscreen assay for antagonists of the orexin 1 receptor (OX1R; HCRTR1): Homogeneous Time Resolved Fluorescence (HTRF)-based cell-based dose response assay for antagonists of the orexin 2 receptor (OX2R; HCRTR2), run by assay provider.
[6] = biological target: T3, Sentrin-specific protease 8 (Homo sapiens, UniProt Q96LD8); assay: SENP8 protease inhibitors, SAR follow-up, biochemical, luminescence (AID 504501)
T3 sequence (Q96LD8 whole entry): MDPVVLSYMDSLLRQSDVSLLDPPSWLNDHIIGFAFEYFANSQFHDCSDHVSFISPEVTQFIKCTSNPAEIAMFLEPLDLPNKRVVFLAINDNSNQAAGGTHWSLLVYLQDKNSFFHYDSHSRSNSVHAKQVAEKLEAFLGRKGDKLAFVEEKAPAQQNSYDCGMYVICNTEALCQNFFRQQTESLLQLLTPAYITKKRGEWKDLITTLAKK

Caspase-3 = biological target: T4, Caspase-3 (Homo sapiens, UniProt P42574); assay: SAR Analysis of small molecule inhibitors of Sentrin-specific proteases (SENPs) using a Caspase-3 Selectivity assay. [Related pubchem assays (depositor defined):AID2540, AID2599, AID434973, AID489001]
T4 sequence (P42574 whole entry): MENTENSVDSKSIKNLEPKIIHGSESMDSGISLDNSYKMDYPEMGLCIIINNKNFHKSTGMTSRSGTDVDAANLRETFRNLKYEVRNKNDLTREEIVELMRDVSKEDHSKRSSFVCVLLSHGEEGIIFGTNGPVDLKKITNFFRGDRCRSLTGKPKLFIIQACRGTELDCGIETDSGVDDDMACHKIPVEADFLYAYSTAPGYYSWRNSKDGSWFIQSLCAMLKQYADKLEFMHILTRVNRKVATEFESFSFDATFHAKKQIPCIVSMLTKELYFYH

[7] = biological target: T5, Sentrin-specific protease 6 (Homo sapiens, UniProt Q9GZR1); assay: SAR Analysis of small molecule inhibitors of Sentrin-specific protease 6 (SENP6) using a Luminescent assay. [Related pubchem assays (depositor defined):AID2582, AID2599]
T5 sequence (Q9GZR1 whole entry): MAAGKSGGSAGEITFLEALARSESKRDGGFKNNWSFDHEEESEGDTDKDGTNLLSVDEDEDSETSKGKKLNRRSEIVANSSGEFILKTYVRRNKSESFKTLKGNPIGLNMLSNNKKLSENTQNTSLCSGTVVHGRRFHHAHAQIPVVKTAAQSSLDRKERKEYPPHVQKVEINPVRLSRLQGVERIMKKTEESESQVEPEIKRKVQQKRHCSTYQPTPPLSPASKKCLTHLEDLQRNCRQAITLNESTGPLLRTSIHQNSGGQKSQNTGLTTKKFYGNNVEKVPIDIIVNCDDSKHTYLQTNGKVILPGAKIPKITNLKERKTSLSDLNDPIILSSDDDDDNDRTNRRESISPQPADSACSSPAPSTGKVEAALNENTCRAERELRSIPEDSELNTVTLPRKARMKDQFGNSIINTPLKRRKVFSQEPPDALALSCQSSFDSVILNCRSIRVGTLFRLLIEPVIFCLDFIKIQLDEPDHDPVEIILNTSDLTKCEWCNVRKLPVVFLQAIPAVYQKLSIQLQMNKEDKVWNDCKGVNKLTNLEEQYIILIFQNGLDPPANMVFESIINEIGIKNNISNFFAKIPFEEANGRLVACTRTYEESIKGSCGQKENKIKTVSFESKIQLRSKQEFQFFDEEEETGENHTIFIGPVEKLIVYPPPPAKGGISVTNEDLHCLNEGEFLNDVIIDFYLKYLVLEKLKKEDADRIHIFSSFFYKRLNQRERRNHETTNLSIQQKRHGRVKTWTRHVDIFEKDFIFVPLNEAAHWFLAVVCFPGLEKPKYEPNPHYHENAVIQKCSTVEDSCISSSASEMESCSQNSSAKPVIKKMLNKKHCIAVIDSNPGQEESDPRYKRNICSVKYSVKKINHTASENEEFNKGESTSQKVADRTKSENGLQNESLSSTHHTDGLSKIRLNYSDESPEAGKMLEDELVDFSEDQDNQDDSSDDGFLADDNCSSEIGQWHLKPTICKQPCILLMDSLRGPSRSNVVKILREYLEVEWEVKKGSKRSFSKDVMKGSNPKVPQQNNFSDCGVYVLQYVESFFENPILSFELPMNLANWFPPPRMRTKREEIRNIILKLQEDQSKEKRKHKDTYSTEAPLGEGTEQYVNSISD

[8] = biological target: T6, Sentrin-specific protease 7 (Homo sapiens, UniProt Q9BQF6); assay: SENP7 protease inhibitors, SAR follow-up, biochemical, luminescence (AID 504497)
T6 sequence (Q9BQF6 whole entry): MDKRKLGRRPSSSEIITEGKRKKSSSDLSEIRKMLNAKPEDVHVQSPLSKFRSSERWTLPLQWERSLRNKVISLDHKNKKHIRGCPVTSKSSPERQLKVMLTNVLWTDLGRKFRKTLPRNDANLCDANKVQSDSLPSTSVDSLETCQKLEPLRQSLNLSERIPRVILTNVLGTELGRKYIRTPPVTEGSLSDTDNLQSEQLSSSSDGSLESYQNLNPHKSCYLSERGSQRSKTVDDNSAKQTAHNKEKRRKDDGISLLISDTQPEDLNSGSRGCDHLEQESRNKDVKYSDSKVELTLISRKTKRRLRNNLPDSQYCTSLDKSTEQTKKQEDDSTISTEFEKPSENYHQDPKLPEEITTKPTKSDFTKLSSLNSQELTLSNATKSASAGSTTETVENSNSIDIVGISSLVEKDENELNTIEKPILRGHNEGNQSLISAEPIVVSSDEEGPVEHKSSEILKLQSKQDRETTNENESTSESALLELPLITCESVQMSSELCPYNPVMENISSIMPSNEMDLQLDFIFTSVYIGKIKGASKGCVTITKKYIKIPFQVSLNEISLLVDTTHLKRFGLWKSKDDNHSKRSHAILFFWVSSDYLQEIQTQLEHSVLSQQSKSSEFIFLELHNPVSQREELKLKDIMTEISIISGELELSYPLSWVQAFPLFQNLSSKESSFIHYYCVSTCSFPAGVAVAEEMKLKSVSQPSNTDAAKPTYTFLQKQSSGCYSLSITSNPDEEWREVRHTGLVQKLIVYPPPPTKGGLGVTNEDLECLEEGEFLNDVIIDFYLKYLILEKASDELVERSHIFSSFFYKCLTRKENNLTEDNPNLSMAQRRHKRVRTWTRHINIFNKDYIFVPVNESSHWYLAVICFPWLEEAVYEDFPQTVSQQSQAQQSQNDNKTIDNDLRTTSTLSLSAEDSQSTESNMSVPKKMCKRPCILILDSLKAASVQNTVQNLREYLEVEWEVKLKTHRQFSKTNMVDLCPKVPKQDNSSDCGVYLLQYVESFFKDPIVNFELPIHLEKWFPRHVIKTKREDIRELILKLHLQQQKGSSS

[9] = biological target: Tyrosine-protein kinase Lck (Homo sapiens, UniProt P06239);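 note: lck was assayed as one member of a kinase panel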
[10] = biological target: Mast/stem cell growth factor receptor Kit (Homo sapiens, UniProt P10721);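 note: KIT entry within a kinase panel assay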
[11] = biological target: Tyrosine-protein kinase Lyn (Homo sapiens, UniProt P07948);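 note: lyn as one member of a kinase panel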
[12] = biological target: Tyrosine-protein kinase Blk (Homo sapiens, UniProt P51451);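 note: obtained as one member of a kinome-wide kinase assay panel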
Sequence of Tyrosine-protein kinase Blk (P51451 whole entry): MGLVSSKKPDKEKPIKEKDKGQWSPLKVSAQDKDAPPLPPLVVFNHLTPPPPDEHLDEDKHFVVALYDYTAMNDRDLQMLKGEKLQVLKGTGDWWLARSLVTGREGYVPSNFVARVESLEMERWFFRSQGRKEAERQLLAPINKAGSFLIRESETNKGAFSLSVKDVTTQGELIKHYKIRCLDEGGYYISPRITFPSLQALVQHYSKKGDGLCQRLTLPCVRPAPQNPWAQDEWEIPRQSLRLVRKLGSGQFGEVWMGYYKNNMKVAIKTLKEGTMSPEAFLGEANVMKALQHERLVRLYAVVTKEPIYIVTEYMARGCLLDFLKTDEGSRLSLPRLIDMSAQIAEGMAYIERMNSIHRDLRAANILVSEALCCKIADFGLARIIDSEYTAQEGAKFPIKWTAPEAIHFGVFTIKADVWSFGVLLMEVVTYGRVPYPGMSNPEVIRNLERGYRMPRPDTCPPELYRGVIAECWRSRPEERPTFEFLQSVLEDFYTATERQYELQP

[13] = biological target: Proto-oncogene tyrosine-protein kinase Src (Homo sapiens, UniProt P12931);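 note: SRC entry within a kinome-wide kinase profiling panel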
Sequence of Proto-oncogene tyrosine-protein kinase Src (P12931 2-536 limits assumed): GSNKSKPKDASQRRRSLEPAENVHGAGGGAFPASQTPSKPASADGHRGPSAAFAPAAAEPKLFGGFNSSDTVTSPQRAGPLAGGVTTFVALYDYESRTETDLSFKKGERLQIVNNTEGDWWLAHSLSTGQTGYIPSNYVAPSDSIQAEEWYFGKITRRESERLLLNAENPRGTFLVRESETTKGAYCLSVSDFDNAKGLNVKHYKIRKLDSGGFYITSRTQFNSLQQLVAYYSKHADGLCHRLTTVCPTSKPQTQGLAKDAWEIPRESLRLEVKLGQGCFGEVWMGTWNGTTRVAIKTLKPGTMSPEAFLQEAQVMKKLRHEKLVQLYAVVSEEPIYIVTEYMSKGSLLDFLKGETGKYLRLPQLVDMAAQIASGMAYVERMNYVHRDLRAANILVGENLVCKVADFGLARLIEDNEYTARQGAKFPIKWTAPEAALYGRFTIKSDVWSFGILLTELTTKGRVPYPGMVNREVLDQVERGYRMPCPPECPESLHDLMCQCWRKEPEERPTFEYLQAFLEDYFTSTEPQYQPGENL

[14] = biological target: Receptor-type tyrosine-protein kinase FLT3 (Homo sapiens, UniProt P36888);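 note: FLT3 was tested as one member of a kinome-wide kinase panel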
[15] = biological target: Tyrosine-protein kinase ABL1 (Homo sapiens, UniProt P00519)
[16] = biological target: Vascular endothelial growth factor receptor 2 (Homo sapiens, UniProt P35968)
Sequence of Vascular endothelial growth factor receptor 2 (P35968 whole entry): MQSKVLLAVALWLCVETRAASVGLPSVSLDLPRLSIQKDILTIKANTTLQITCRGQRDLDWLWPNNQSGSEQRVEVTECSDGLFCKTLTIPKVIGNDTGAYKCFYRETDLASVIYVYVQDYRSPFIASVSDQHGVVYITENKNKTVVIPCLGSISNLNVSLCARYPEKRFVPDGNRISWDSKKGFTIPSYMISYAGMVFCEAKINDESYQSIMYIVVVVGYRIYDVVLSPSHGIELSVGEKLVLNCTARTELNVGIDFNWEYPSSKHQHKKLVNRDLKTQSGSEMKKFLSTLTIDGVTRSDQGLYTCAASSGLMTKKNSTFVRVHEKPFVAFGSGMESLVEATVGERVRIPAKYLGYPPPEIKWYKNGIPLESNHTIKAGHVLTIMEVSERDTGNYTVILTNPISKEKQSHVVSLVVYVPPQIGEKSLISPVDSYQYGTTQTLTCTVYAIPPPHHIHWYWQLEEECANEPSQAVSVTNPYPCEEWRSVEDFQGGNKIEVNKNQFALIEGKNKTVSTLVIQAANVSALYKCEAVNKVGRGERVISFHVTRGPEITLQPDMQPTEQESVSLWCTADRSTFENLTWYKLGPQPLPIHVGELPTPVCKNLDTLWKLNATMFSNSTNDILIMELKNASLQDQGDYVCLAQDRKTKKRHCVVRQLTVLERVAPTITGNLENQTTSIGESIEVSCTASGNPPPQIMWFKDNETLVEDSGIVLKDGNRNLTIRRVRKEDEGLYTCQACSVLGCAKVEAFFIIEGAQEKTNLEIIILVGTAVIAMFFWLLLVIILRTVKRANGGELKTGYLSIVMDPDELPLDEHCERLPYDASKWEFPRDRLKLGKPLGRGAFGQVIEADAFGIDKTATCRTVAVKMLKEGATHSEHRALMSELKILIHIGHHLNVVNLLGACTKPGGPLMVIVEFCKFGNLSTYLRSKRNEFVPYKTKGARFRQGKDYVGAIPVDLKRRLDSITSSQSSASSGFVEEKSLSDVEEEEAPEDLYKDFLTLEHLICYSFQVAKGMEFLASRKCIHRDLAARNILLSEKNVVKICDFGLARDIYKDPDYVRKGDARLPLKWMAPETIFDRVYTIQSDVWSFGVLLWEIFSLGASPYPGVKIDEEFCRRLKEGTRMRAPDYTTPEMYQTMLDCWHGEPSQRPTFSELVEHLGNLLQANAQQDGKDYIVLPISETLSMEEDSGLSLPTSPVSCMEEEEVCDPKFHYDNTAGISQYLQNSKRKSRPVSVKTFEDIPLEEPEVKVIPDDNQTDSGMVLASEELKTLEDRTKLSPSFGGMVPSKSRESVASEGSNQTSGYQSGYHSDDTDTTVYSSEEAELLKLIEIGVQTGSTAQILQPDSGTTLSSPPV

[17] = biological target: Vascular endothelial growth factor receptor 3 (Homo sapiens, UniProt P35916);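 note: value from a kinome-wide profiling panel, with FLT4 as the panel member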
Sequence of Vascular endothelial growth factor receptor 3 (P35916 whole entry): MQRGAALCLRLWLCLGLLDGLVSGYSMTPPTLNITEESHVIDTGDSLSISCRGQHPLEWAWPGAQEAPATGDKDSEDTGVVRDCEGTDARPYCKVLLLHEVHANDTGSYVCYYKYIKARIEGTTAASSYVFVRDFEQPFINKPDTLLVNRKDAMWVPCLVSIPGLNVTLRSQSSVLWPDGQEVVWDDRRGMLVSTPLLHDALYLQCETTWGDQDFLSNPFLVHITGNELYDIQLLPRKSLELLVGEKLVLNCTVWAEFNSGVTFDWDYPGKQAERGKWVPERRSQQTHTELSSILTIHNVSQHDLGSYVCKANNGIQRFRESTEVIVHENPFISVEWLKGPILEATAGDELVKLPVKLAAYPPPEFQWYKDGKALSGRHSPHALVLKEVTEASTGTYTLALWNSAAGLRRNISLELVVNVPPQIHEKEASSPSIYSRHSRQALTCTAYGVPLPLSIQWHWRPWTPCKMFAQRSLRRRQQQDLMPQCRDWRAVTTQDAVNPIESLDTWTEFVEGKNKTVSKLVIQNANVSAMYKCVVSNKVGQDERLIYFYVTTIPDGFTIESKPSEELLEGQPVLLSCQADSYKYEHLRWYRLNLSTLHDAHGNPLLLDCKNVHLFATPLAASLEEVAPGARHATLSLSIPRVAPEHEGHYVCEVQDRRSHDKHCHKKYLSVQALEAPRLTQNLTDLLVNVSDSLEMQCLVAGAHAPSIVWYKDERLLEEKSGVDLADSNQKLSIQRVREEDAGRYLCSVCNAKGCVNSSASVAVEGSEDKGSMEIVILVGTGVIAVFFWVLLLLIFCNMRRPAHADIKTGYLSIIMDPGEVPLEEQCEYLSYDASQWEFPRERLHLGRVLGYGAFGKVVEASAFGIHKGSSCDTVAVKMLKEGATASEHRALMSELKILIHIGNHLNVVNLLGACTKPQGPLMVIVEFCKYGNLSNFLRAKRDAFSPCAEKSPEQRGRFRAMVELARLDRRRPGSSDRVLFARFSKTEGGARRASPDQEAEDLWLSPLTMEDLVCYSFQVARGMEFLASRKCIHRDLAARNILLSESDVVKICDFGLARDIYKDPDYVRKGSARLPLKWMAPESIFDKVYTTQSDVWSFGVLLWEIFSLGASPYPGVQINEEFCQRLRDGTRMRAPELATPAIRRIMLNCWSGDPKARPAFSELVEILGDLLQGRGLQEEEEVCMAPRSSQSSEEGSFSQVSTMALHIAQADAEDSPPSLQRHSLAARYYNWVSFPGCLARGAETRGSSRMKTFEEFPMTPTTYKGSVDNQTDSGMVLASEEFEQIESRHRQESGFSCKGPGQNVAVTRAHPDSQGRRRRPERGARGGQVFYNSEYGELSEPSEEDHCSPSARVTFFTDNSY

[18] = biological target: Tyrosine-protein kinase Fyn (Homo sapiens, UniProt P06241)
[19] = biological target: Vascular endothelial growth factor receptor 1 (Homo sapiens, UniProt P17948);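 note: measured within a kinome-wide profiling panel, FLT1 as the panel member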
Sequence of Vascular endothelial growth factor receptor 1 (P17948 whole entry): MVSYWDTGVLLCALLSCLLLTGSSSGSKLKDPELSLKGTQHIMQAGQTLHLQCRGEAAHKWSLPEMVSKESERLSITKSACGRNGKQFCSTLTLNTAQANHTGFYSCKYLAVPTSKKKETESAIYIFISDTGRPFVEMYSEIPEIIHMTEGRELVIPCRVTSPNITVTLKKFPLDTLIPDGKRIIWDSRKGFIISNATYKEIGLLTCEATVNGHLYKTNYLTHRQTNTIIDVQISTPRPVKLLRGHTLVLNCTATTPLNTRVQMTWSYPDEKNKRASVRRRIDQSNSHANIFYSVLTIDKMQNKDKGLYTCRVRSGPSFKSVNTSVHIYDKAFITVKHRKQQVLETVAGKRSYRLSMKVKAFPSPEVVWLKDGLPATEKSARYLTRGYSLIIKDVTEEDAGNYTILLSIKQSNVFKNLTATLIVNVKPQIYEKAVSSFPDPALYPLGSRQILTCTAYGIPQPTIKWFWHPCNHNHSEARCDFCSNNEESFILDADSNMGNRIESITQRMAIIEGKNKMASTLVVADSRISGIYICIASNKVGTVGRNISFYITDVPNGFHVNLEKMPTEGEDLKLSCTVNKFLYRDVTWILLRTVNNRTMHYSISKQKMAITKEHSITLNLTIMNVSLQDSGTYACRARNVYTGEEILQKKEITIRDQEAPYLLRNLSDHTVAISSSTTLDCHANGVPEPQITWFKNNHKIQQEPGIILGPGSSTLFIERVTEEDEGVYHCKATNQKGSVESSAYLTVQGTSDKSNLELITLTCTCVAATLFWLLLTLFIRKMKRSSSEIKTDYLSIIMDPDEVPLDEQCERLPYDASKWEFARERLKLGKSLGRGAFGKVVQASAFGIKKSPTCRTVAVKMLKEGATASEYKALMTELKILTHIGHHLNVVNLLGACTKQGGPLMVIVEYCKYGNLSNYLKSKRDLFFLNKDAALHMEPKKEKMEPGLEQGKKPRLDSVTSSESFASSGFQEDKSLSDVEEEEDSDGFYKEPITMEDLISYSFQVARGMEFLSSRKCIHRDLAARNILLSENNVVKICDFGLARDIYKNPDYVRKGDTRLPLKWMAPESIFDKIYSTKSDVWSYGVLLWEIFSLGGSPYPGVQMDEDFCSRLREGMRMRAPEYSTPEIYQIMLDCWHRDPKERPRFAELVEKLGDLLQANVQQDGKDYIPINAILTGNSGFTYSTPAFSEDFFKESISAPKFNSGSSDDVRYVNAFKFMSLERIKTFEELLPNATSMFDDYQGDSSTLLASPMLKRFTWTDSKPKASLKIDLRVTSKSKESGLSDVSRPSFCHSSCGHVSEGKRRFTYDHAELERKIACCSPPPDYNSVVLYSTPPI

[20] = biological target: Macrophage colony-stimulating factor 1 receptor (Homo sapiens, UniProt P07333);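 note: value comes from the Navigating the Kinome screening panel, CSF1R member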

Structure (SMILES): CN(C)c1ccc(NC(=S)c2ccc3ccccc3n2)cc1
IC50 (CHO-K1): > 66.3 µM (inactive)
IC50 [1]: > 49.8 µM (inactive)
IC50 [2]: 2.86 µM (active)
IC50 [3]: 6.04 µM (active)
IC50 (Orexin receptor type 2 [4]): > 88.8 µM (inactive)
IC50 (Orexin receptor type 2 [5]): > 50 µM (inactive)

IC50 (Caspase-3): > 99 µM (inactive)
IC50 [7]: > 99 µM (inactive)
IC50 [8]: > 99 µM (inactive)
Structure (SMILES): ON(O)c1ccc(N/N=C/c2c[nH]c3ccccc23)cc1
IC50 [6]: > 99 µM (inactive)

Structure (SMILES): COc1ccc2sc(-c3ccc(N(C)C)cc3)c(C#CCO)c2c1
IC50 (CHO-K1): > 66.2 µM (inactive)
IC50 [1]: > 49.7 µM (inactive)
IC50 [2]: 6.09 µM (active)
IC50 [3]: 10.3 µM (inactive)
IC50 (Orexin receptor type 2 [4]): 37.4 µM (inactive)
IC50 (Orexin receptor type 2 [5]): > 50 µM (inactive)

Ki [9]: 0.316 µM (active)
Ki [10]: 0.000794 µM (active)
Ki [11]: 0.126 µM (active)
Ki [12]: 0.398 µM (active)
Ki [13]: 0.794 µM (active)
Ki [14]: 0.00158 µM (active)
Ki [15]: 0.2 µM (active)
Ki [16]: 0.000631 µM (active)
Ki [17]: 0.00158 µM (active)
Ki [18]: 0.501 µM (active)
Ki [19]: 0.000316 µM (active)
Ki [20]: 0.00251 µM (active)
Structure (SMILES): Cn1nc(N)c2c(-c3ccc(NC(=O)Nc4cccc(C(F)(F)F)c4)cc3)ccnc21
